From US20160113900A1, “INHIBITORS OF MITOCHONDRIAL STAT3 AND USES THEREOF IN MODULATION OF MAST CELL EXOCYTOSIS” (Yissum Research Development Company of the Hebrew …, priority 2014, published 2016)

What was measured:
RBL cells [1] = assay: β-Hexosaminidase release assay (degranulation) in RBL cells; type: cell-based, rat
Protocol: (§1) RBL-2H3 cells were maintained in RPMI 1640 medium as previously described1. Bone marrow was isolated from 5-6 week-old mice, and BMMC were cultured in RPMI medium supplemented with 20 ng/ml interleukin-3 (IL-3) and 20 ng/ml SCF as previously described2, 3. Cells were generally grown for a minimum of 4 weeks and used when >90% of the population expressed FcεRI. BMMC and RBL cells were sensitized first with anti-DNP IgE monoclonal antibody (SPE-7; Sigma-Aldrich Corp.) and then challenged with DNP-BSA (Sigma-Aldrich Corp.). IgE antibody was centrifuged (18,000 g, 5 min) before use to remove aggregates. […] For glycolysis elimination cells were maintained in glucose-free RPMI supplemented with 10% dialyzed fetal calf serum and 5 mM galactose.
(§2) 1×104 RBL or 3×104 BMMC were immunologically activated as described above. After IgE incubation, the cells were washed three times with 5 mL of degranulation buffer (NaCl 130 mM, KCl 5 mM, Glucose 5.6 mM, MgCl2 1 mM, CaCl2 1.2 mM, Hepes pH 7.4 10 mM, BSA 0.1%) and resuspended in 200 μL of the same buffer with DNP-albumin for 30 min. The release of β-hexosaminidase was determined in triplicates in a 96-well plate. Aliquots (20 μL) of supernatants and cell lysates were incubated for 30 minutes with 100 μL of substrate solution (1.3 mg/mL p-nitrophenyl-b-D-2-acetamido-2-deoxyglucopyranozide in 0.1 M citrate [pH 4.51]). The reaction was stopped by the addition of 200 μL of 0.2 M glycine (pH 10.7). The plate OD was read in an enzyme-linked immunosorbent assay (ELISA) reader at a wavelength of 405 nm Percent release values for each experimental condition were calculated3.

BMMC [2] = assay: Measurements of secreted mediators (ELISA) in activated BMMC; type: cell-based, mouse
Protocol: 1×106 BMMC were immunologically activated as described above. After IgE incubation, the cells were washed three times in PBS and incubated with DNP-albumin (Sigma-Aldrich) for 30 mM in complete growth medium. Supernatant was collected and Granzyme B and TNFα content were measured using ELISA Kits (eBioscience).

plasma histamine = assay: In vivo histamine release assay, passive systemic IgE-mediated anaphylaxis model; conditions: Mitocur-1 80 mg/kg i.p., 3.5 h before DNP-BSA challenge
Protocol: C3H 6-7 week male and female WT mice were purchased from Jackson Lab (Cambridge, Mass., USA), mice were fed a regular diet and with drinking water ad libitum. Experiments were approved by The Hebrew University Ethical Committee for Animal Experimentation.
WT C3H mice were sensitized with 3 μg murine IgE anti-DNP mAb SPE-7 by means of intravenous injection in the tail vein. Twenty-four hours later, mice were treated with 40 mg/kg of static dissolved in corn oil or corn oil alone for 2.5 hours, then mice were challenged with i.v. injection of DNP-BSA (250 μg per mouse). 100 μl of blood was collected immediately and added to an equal volume of pre-cold Alsever's Solution. Blood was centrifuged 2000 g for […] and plasma supernatant was collected. Plasma histamine levels were determined by using competitive ELISA (IBL International Gmbh, Hamburg, Germany).
STAT3's role in vivo was investigated by evaluating the response to allergic stimulation in Stattic-treated mice. The passive systemic IgE-mediated anaphylaxis model was used. Mice were injected (i.v.) with IgE anti-DNP. Twenty four hours later they were injected (i.p.) with Stattic (80 mg/kg) or corn oil which was used as control. Three and a half hours later the mice were challenged with DNP-BSA for 1.5 minutes. Plasma was collected, and histamine levels were measured by competitive ELISA. Histamine secretion in Stattic-treated mice was 43% less than that in control mice (FIG. 17, p<0.05).
Mitocur-1/3 effectiveness in vivo was investigated by evaluating the response to allergic stimulation in Mitocur-1/3-treated mice. The passive systemic IgE-mediated anaphylaxis model was used. Mice were injected (i.v.) with IgE anti-DNP. Twenty four hours later they were injected (i.p.) with Mitocur-1 (80 mg/kg) and Mitocur-3 (40 mg/kg). Corn oil was used as control. Three and a half hours later the mice were challenged with DNP-BSA for 1.5 minutes. Plasma was collected, and histamine levels were measured by competitive ELISA. Histamine secretion in Mitocur-1-treated mice was 35% less than that in control mice (FIG. 22A, p<0.05).

RBL cells [3] = assay: ATP determination (ATPLite luminescence) in RBL cells; type: cell-based, rat; conditions: for ATP levels: RBL cells
Protocol: as §1
ATP levels were measured using the ATPLite luminescence-based assay according to the manufacturer's instructions (Perkin Elmer, Waltham, Mass., USA).

caspase3 [4] = assay: Western blot of cleaved caspase3 in BMMC; type: cell-based, mouse; conditions: 6 μM (FIG. 21D)
RBL cells [5] = assay: TNF-α secretion of activated RBL cells; type: cell-based, rat; conditions: activated RBL cells (FIG. 19G)
BMMC [6] = assay: β-Hexosaminidase release assay (degranulation) in BMMC; type: cell-based, mouse; conditions: activated BMMC, 6 μM
Protocol: as §1, §2

caspase3 [7] = assay: Western blot of caspase3 / cleaved caspase3 (apoptosis) in RBL cells; type: cell-based, rat
Protocol: (§3) RBL cells and mitochondrial pellets were lysed by the addition of lysis buffer (50 mM Tris-HCl pH 7.4, 1% Nonidet P-40, 0.25% Na-deoxycholate, 150 mM NaCl, 1 mM EDTA, 1 mM PMSF) supplemented with 15 μl protease inhibitor (Sigma-Aldrich). Cells and mitochondria were vortexed and incubated on ice for 15 min. The lysates were then centrifuged at 14,000 g for 15 min and pellets were discarded. The protein concentration of each sample was determined using Bradford Reagent (Sigma-Aldrich). Proteins were resolved by 10-15% SDS-PAGE under reducing conditions and transferred to polyvinylidene difluoride membranes (Millipore Billerica, Ma). The membranes were incubated in 5% fat-free milk and TBST (10 mM Tris-HCl, pH 7.4, 150 mM NaCl, 0.1% Tween 20) for 1 h and then in 5% BSA and TBST containing various dilutions of primary Abs for 18 h at 4° C. The membranes were washed three times with TBST for 5 mM before and after each incubation with secondary Ab. The proteins were detected with the appropriate secondary Ab (1 h; room temperature) coupled to HRP-conjugated goat anti-rabbit or anti-mouse Ab and visualized by chemiluminescence according to the manufacturer's instructions (Pierce).

c-myc = assay: Western blot of c-myc (STAT3 target gene) in RBL cells; type: cell-based, rat; conditions: 3 h
Protocol: as §3
The levels of cleaved caspase3 were measured as an indicator of apoptosis, which could occur as a result of inhibiting STAT3's target genes. […] Since higher concentrations reduced the levels of c-myc and enhanced the levels of cleaved caspase3, the inventors concluded that 6 μM Mitocur-1/3 or lower would be suitable for the present invention. As these molecules are intended to be used in a time frame greater than 3 h, RBL cells were incubated with the same concentrations of Mitocur-1/3 for 24 h and the levels of cleaved caspase3 were determined by Western blot analysis.

RBL cells [8] = assay: Oxygen consumption (Seahorse XF analyzer) in RBL cells; type: cell-based, rat; conditions: for oxygen consumption: RBL cells, 3 h; for decrease in oxygen consumption: 40 μM U0126
Protocol: as §1
Oxygen consumption rate (OCR) was measured using an XF24 extracellular flux analyzer (Seahorse Biosciences, North Billeric, Mass., USA).

[9] = target: signal transducer and activator of transcription factor 3 (STAT3), mitochondrial, endogenous in RBL cells (rat (RBL cells)) (UniProt P52631); assay: cell-based or functional assay
UniProt P52631, sequence (P52631 2-770 limits assumed): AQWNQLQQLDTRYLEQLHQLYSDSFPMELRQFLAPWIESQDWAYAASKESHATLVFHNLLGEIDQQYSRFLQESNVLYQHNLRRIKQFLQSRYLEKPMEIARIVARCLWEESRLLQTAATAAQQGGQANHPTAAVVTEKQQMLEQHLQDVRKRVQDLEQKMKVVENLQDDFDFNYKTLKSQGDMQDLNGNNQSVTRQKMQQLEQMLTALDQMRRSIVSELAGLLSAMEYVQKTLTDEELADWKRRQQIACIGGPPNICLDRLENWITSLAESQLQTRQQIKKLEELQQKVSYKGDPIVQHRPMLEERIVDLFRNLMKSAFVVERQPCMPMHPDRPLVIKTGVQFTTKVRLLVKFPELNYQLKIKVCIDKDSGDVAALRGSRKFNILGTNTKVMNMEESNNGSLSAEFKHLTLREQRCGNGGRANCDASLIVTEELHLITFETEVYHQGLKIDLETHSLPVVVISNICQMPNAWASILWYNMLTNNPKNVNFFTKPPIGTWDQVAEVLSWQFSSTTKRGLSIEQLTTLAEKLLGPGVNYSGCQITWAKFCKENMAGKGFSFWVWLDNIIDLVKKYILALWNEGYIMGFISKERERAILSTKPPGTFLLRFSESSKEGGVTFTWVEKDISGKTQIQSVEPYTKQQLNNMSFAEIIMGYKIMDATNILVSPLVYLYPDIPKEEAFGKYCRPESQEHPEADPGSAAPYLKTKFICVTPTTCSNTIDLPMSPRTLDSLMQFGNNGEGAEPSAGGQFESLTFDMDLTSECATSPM

[10] = test system: STAT3 serine 727 phosphorylation; assay: Western blot of STAT3 serine 727 phosphorylation in activated RBL cells; type: cell-based, rat
Protocol: RBL cells were washed once in cold PBS prior to homogenization. 9×10^6 cells were homogenized in buffer A (320 mm sucrose, 5 mm Tris, 2 mm EGTA, pH 7.4) with 10 strokes of a Teflon Dounce homogenizer. The procedure was performed at 4° C. The homogenate was centrifuged for 3 min at 2000 g and the supernatant kept. This was repeated twice, and the supernatants combined then centrifuged for 3 min at 2000 g. to remove the nuclei and cell debris. The supernatant was transferred to a clean tube and centrifuged for 10 min at 12,000 g to pellet mitochondria, washed twice resuspended in a small volume of buffer A and stored at −70° C. In order to prepare mitoplasts, the mitochondrial pellet was resuspended in buffer A with the addition of 0.02% (w/v) digitonin. The pellet was resuspended and washed twice in large volumes of digitonin-free buffer A. […] Cells and mitochondria were vortexed and incubated on ice for 15 min. The lysates were then centrifuged at 14,000 g for 15 min and pellets were discarded. The protein concentration of each sample was determined using Bradford Reagent (Sigma-Aldrich). Proteins were resolved by 10-15% SDS-PAGE under reducing conditions and transferred to polyvinylidene difluoride membranes (Millipore Billerica, Ma). […] The membranes were washed three times with TBST for 5 mM before and after each incubation with secondary Ab. The proteins were detected with the appropriate secondary Ab (1 h; room temperature) coupled to HRP-conjugated goat anti-rabbit or anti-mouse Ab and visualized by chemiluminescence according to the manufacturer's instructions (Pierce).

[11] = immunologically activated BMMC, 6 μM (FIG. 21C)
[12] = RBL cells transfected with PIAS3-mito vs empty plasmid

Q: Which Emax at 6 µM (RBL cells [1]; Rattus norvegicus, RBL cells, 6 μM, 3 h incubation, read-out: maximum effect, reduction of degranulation) does the source give for `COc1cc(/C=C/C(=O)CC(=O)/C=C/c2ccc(OCCC[P+](c3ccccc3)(c3ccccc3)c3ccccc3)c(OC)c2)ccc1OCCC[P+](c1ccccc1)(c1ccccc1)c1ccccc1` [Mitocur-1, 1,7-Bis{3-methoxy-4-[3-(triphenylphosphonium)propoxy]-phenyl}hepta-1,6-diene-3,5-dione dichloride] here?
A: > 50%

Q: What about the Granzyme-B secretion (BMMC [2]; BMMC (data not shown)) of the same molecule?
A: abolished

Q: What about the “cytokine secretion: IL-6” value (BMMC [2]; [11]) of the same molecule?
A: totally abolished

Q: What about the “cytokine secretion: TNF-α” value (BMMC [2]; [11]) of the same molecule?
A: totally abolished

Q: And the “histamine secretion less than in control mice” value (plasma histamine)?
A: 35%

Q: What about the ATP levels (RBL cells [3]; 100 μM, 3 h (data not shown)) of the same molecule?
A: reduced

Q: What about the ATP levels (RBL cells [3]; 6-50 μM, 3 h) of the same molecule?
A: No significant reduction

Q: And the melting point?
A: 130 to 140 °C

Q: And the “cleaved caspase3 levels” value (caspase3 [4])?
A: no change

Q: What about the TNF-α secretion (RBL cells [5]) of the same molecule?
A: completely abolished

Q: What about the degranulation levels (BMMC [6]; 3 h incubation) of the same molecule?
A: reduced

Q: What about the degranulation levels (BMMC [6]; 24 h incubation) of the same molecule?
A: reduced

Q: And the cleaved caspase levels (caspase3 [7]; RBL cells, 6 μM, 3 h)?
A: no change

Q: And the “cleaved caspase3 levels” value (caspase3 [7]; RBL cells, concentrations higher than 6 μM, 3 h)?
A: enhanced

Q: And the “c-myc levels compared to control” value (c-myc; 6 μM)?
A: no change

Q: What about the c-myc levels (c-myc; concentrations higher than 6 μM) of the same molecule?
A: reduced

Q: And the oxygen consumption (RBL cells [8]; 100 μM)?
A: reduced

Q: And the oxygen consumption (RBL cells [8]; 6-50 μM)?
A: No significant reduction

Q: Which degranulation (RBL cells [1]; immunologically activated RBL cells, 250 μM C188-9, 10 min) does the source give for `COc1ccc(S(=O)(=O)Nc2cc(-c3c(O)ccc4ccccc34)c(O)c3ccccc23)cc1` [Mitocur C188-9, N-(1′,2-Dihydroxy-1,2′-binaphthalen-4′-yl)-4-methoxybenzenesulfonamide] here?
A: abolished

Q: Which results are given for “PIAS3 fused to a mitochondrial target sequence (PIAS3-mito) (from UniProt O54714 13-628)”?
A: ATP levels of activated cells compared to control (empty plasmid) [9]: 15.9 % decrease; degranulation (β-hexosaminidase release) [9]: 67.5%

Q: Which “reduction in degranulation as compared to control” value (RBL cells [1]; IgE-Ag stimulated RBL cells, 40 μM U0126, 20 min) does the source give for `N#CC(=C(/N)Sc1ccccc1N)/C(C#N)=C(\N)Sc1ccccc1N` [Mitocur U0126, reference compound] here?
A: 33.0±0.6%

Q: What about the “degranulation levels at higher concentrations” value (RBL cells [1]; RBL cells, U0126 above 40 μM (FIG. 12)) of the same molecule?
A: more profound reduction

Q: And the “STAT3 727 serine phosphorylation, total cell level” value ([10]; RBL cells, 40 μM U0126, activated 5 min)?
A: significant decrease

Q: What about the “STAT3 727 serine phosphorylation, mitochondrial level” value ([10]; activated RBL cells fractionated into cytosol and mitochondria, 40 μM U0126) of the same molecule?
A: decrease

Q: And the “decrease in ATP levels” value (RBL cells [3]; immunologically activated RBL cells, 20 min pre-treatment with 40 μM U0126)?
A: 3.0±0.4%

Q: And the “caspase3 levels (apoptosis)” value (caspase3 [7]; activated RBL cells, 40 μM U0126)?
A: no change

Q: And the “decrease in oxygen consumption” value (RBL cells [8]; activated RBL cells)?
A: 15.8±4.9%

Q: And the “decrease in oxygen consumption” value (RBL cells [8]; quiescent RBL cells)?
A: 9.4±2.4%

B1: PIAS3-mito: PIAS3 fused to a mitochondrial target sequence, expressed from a transfected plasmid (SEQ ID NO. 16) (protein)
chain: MSVLTPLLLRGLTGSARRLPVPRAKIHSLLQVDSFRVSELQVLLGFAGRNKSGRKHELLAKALHLLKSSCAPSVQMKIKELYRRRFPRKTLGPSDLSLLSLPPGTSPPVHPDVTMKPLPFYEVYGELIRPTTLASTSSQRFEEAHFTFALTPQQLQQILTSREVLPGAKCDYTIQVQLRFCLCETSCPQEDYFPPNLFVKVNGKLCPLPGYLPPTKNGAEPKRPSRPINITPLARLSATVPNTIVVNWSSEFGRNYSLSVYLVRQLTAGTLLQKLRAKGIRNPDHSRALIKEKLTADPDSEVATTSLRVSLMCPLGKMRLTVPCRALTCAHLQSFDAALYLQMNEKKPTWTCPVCDKKAPYESLIIDGLFMEILNSCSDCDEIQFMEDGSWCPMKPKKEASEVCPPPGYGLDGLQYSAVQEGIQPESKKRVEVIDLTIESSSDEEDLPPTKKHCPVTSAAIPALPGSKGALTSGHQPSSVLRSPAMGTLGSDFLSSLPLHEYPPAFPLGADIQGLDLFSFLQTESQHYGPSVITSLDEQDTLGHFFQYRGTPSHFLGPLAPTLGSSHRSSTPAPPPGRVSSIVAPGSSLREGHGGPLPSGPSLTGCRSDVISLD
Q: For B1, which decrease in degranulation (RBL cells [1]; [12]) is on record?
A: 67.5±15.0%

Q: What about the “decrease in ATP levels of activated cells compared to control” value (RBL cells [3]; RBL cells transfected with PIAS3-mito vs empty plasmid, activated 5 min) of the same molecule?
A: 15.9±1.6%

Q: And the “oxygen consumption in activated cells compared to activated control cells” value (RBL cells [8]; [12])?
A: did not change
